In ChEMBL document CHEMBL5465560, “Selectivity Literature for EUbOPEN Chemogenomic Library” (2024):
Blank lines part the entries; values can stand above or below the compound they belong to.

Tests used:
[1] = molecular target: Calcium/calmodulin-dependent protein kinase kinase 2 (Homo sapiens) (UniProt Q96RR4); assay: Selectivity interaction (LanthaScreen Eu Kinase Binding Assay) EUB0001632a CAMKK2; settings: at 10 µM
[2] = molecular target: Protein arginine N-methyltransferase 3 (Homo sapiens, UniProt O60678); assay: Selectivity interaction (Methyltransferase screen (radiometric assays, panel of 8 PRMTs, 21 protein lysine methyltransferases, 3 DNA methyltransferases, and one RNA methyltransferase)) EUB0000272b PRMT3
[3] = molecular target: Proto-oncogene tyrosine-protein kinase Src (Homo sapiens, UniProt P12931); assay: Selectivity interaction (SelectScreen profiling (Invitrogen)) EUB0000607a SRC; settings: at 2 µM
[4] = molecular target: T1, Serine/threonine-protein kinase 3 (Homo sapiens) (UniProt Q13188); assay: Selectivity interaction (ActivX KiNativ screen (kinase selectivity in THP-1 cell lysates)) EUB0000639a STK3; assay type: subcellular; settings: lysate, at 0.01 µM
T1 sequence (whole entry): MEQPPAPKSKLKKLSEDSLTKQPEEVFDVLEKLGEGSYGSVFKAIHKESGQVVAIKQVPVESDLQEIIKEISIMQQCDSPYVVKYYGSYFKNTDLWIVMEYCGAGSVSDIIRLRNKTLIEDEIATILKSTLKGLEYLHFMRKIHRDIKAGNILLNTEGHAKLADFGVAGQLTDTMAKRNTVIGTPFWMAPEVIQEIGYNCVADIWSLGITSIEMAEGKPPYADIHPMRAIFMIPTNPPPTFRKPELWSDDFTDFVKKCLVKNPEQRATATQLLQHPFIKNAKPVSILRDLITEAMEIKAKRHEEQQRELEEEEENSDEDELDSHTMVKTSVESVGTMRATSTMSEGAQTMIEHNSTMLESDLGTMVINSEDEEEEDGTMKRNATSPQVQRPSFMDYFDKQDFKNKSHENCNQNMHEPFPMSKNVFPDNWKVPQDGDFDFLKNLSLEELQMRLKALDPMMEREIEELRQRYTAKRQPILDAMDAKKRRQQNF

[5] = molecular target: Interferon-induced, double-stranded RNA-activated protein kinase (Homo sapiens) (UniProt P19525); assay: Selectivity interaction (ActivX KiNativ screen (kinase selectivity in THP-1 cell lysates)) EUB0000639a EIF2AK2; assay type: subcellular; settings: lysate, at 0.2 µM
[6] = molecular target: T2, Phosphatidylinositol 5-phosphate 4-kinase type-2 beta (Homo sapiens) (UniProt P78356); assay: Selectivity interaction (ActivX KiNativ screen (kinase selectivity in THP-1 cell lysates)) EUB0000639a PIP4K2B; assay type: subcellular; settings: lysate
T2 sequence (whole entry): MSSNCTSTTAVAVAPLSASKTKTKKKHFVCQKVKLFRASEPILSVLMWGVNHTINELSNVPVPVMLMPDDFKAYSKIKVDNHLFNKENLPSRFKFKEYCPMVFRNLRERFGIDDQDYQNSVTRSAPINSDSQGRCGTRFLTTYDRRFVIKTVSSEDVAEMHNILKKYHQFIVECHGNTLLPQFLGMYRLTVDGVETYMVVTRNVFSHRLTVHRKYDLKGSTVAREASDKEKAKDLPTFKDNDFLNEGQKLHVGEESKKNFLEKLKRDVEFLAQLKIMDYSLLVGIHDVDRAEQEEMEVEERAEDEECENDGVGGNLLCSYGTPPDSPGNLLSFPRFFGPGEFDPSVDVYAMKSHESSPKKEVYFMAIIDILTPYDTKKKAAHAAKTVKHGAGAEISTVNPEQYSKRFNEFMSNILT

[7] = molecular target: Mitogen-activated protein kinase 14 (Homo sapiens, UniProt Q16539); assay: Selectivity interaction (ActivX KiNativ screen (kinase selectivity in THP-1 cell lysates)) EUB0000639a MAPK14; assay type: subcellular; settings: lysate, at 1 µM
[8] = molecular target: Serine/threonine-protein kinase PLK1 (Homo sapiens, UniProt P53350); assay: Selectivity interaction (ProQinase) EUB0000171b PLK1
Insulin receptor = Insulin receptor (Homo sapiens, UniProt P06213); assay: Selectivity interaction (ProQinase) EUB0000171b INSR
[9] = molecular target: Serine/threonine-protein kinase PLK2 (Homo sapiens, UniProt Q9NYY3); assay: Selectivity interaction (KinomeScan (DiscoverX)) EUB0000695a PLK2; settings: at 100 nM
[10] = test system: Phosphatidylinositol 4,5-bisphosphate 3-kinase catalytic subunit alpha isoform (Homo sapiens), P42336 [Q546K]; assay: (§1) Selectivity interaction (KinomeScan (DiscoverX)) EUB0000092b PIK3CA; settings: at 10 µM
[11] = test system: Phosphatidylinositol 4,5-bisphosphate 3-kinase catalytic subunit alpha isoform (Homo sapiens), P42336 [C420R]; assay: as §1; settings: at 10 µM
[12] = test system: Phosphatidylinositol 4,5-bisphosphate 3-kinase catalytic subunit alpha isoform (Homo sapiens), P42336 [E542K]; assay: as §1; settings: at 10 µM
[13] = test system: Phosphatidylinositol 4,5-bisphosphate 3-kinase catalytic subunit alpha isoform (Homo sapiens), P42336 [E545A]; assay: as §1; settings: at 10 µM
[14] = test system: Phosphatidylinositol 4,5-bisphosphate 3-kinase catalytic subunit alpha isoform (Homo sapiens), P42336 [E545K]; assay: as §1; settings: at 10 µM
[15] = test system: Phosphatidylinositol 4,5-bisphosphate 3-kinase catalytic subunit alpha isoform (Homo sapiens), P42336 [H1047L]; assay: as §1; settings: at 10 µM
[16] = test system: Phosphatidylinositol 4,5-bisphosphate 3-kinase catalytic subunit alpha isoform (Homo sapiens), P42336 [M1043I]; assay: as §1; settings: at 10 µM
[17] = molecular target: Serine/threonine-protein kinase 10 (Homo sapiens) (UniProt O94804); assay: Selectivity interaction (KinomeScan (DiscoverX)) EUB0000092b STK10; settings: at 10 µM
[18] = test system: Mast/stem cell growth factor receptor Kit (Homo sapiens), P10721 [L576P]; settings: at 10 µM
[19] = molecular target: Receptor tyrosine-protein kinase erbB-4 (Homo sapiens, UniProt Q15303); assay: Selectivity interaction (KinomeScan (DiscoverX)) EUB0000618a ERBB4; settings: at 10 µM

Sequence of Insulin receptor (P06213 28-758 limits assumed): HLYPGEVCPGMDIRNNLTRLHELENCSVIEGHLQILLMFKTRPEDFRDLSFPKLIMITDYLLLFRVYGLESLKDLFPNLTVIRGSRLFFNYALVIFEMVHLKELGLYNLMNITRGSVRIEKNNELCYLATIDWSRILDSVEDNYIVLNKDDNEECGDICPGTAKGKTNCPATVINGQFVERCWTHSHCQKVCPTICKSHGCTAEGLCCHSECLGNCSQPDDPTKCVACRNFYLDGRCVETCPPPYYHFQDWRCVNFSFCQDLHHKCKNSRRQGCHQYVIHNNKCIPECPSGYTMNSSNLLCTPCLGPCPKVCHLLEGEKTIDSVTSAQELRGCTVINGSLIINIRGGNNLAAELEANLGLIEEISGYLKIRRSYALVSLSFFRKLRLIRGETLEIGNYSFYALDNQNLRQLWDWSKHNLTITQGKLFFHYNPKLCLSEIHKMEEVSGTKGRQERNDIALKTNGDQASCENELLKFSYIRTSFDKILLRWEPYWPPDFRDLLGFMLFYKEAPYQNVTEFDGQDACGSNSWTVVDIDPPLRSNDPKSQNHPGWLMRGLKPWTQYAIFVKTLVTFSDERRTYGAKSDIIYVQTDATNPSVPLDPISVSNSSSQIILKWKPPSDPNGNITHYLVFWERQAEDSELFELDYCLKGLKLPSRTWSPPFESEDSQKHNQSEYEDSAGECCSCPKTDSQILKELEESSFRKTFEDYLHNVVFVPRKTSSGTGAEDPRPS
Sequence of Insulin receptor (P06213 763-1382 limits assumed): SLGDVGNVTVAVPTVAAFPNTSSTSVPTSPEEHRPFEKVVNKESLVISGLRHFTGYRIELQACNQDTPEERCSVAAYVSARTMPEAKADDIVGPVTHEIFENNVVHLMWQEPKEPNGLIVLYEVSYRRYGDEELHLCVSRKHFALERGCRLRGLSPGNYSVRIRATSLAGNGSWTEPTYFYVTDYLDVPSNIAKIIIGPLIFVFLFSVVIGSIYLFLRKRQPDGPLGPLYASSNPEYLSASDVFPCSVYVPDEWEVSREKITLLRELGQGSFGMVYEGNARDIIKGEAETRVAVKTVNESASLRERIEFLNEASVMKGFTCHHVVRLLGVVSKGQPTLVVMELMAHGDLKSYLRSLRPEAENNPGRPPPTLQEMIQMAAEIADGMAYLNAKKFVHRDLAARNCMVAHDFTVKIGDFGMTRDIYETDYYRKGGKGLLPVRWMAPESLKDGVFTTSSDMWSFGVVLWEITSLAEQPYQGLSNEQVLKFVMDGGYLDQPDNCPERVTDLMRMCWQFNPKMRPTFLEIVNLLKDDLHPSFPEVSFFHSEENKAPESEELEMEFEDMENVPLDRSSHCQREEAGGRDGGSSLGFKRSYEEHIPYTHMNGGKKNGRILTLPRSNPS
Sequence of Protein arginine N-methyltransferase 3 (O60678 2-531 limits assumed): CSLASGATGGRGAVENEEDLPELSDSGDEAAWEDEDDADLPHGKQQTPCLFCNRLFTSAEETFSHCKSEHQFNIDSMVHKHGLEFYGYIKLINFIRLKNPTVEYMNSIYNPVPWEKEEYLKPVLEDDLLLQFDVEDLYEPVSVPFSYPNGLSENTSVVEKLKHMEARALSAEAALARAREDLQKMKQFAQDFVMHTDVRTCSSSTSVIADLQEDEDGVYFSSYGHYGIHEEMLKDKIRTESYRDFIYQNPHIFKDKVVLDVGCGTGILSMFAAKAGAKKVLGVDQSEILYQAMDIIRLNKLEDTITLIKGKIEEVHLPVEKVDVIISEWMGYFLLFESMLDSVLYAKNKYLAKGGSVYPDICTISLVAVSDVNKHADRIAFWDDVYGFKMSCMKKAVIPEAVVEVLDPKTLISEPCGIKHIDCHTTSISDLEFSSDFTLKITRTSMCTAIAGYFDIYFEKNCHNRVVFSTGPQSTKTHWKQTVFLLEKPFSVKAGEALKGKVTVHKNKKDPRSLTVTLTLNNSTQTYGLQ
Sequence of Serine/threonine-protein kinase PLK1 (P53350 whole entry): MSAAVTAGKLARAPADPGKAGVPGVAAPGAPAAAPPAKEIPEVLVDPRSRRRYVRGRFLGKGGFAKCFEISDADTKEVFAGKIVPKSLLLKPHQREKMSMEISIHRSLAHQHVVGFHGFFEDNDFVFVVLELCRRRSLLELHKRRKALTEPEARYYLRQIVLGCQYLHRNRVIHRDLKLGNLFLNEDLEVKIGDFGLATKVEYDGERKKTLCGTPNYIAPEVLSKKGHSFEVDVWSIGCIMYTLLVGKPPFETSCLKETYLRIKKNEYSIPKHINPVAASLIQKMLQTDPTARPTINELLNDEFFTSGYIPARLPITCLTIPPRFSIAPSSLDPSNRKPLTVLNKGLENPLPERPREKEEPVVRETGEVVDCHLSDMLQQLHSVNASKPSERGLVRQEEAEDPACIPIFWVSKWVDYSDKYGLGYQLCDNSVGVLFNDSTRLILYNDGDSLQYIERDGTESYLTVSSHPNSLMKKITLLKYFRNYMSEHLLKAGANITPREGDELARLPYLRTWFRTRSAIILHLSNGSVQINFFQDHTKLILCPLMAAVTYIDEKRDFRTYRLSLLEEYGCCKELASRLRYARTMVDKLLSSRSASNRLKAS
Sequence of Phosphatidylinositol 4,5-bisphosphate 3-kinase catalytic subunit alpha isoform (Homo sapiens), P42336 [E542K] (P42336 whole entry E542K, canonical isoform): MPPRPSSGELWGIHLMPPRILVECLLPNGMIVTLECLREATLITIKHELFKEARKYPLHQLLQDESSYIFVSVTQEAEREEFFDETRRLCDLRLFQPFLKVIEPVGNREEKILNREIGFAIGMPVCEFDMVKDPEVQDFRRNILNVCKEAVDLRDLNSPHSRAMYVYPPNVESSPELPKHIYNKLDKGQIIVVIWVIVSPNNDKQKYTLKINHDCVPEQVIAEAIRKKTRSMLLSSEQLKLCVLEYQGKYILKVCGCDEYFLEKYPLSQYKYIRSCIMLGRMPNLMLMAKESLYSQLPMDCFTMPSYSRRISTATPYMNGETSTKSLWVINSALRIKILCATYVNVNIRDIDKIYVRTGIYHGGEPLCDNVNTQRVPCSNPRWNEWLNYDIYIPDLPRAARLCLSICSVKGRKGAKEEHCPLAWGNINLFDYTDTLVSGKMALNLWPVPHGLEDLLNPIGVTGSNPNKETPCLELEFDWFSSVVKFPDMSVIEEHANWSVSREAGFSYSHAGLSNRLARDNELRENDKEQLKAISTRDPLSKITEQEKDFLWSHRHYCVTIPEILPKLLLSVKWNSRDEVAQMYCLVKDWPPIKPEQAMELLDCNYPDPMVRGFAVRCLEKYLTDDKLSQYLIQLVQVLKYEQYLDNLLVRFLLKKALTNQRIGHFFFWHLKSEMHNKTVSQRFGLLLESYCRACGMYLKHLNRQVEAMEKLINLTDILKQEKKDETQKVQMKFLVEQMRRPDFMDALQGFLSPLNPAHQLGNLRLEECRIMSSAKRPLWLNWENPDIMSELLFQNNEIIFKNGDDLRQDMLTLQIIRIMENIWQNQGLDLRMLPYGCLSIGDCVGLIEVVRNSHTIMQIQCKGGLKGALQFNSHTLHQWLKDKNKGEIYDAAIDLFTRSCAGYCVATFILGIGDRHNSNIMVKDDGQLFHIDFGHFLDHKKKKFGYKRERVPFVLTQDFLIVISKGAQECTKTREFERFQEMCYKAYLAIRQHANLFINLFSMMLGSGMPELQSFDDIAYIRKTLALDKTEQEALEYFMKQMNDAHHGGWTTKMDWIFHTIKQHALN
Sequence of Mitogen-activated protein kinase 14 (Q16539 whole entry): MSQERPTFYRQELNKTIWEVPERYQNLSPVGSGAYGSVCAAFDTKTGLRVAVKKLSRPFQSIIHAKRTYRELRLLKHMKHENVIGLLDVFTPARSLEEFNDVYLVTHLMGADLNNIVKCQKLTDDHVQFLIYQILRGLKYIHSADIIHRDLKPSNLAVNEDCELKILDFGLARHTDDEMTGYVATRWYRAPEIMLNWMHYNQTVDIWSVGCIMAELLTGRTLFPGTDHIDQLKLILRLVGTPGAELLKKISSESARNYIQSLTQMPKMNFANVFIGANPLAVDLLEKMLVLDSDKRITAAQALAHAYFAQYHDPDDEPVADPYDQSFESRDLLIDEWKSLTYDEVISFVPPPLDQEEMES
Sequence of Phosphatidylinositol 4,5-bisphosphate 3-kinase catalytic subunit alpha isoform (Homo sapiens), P42336 [Q546K] (P42336 whole entry Q546K, canonical isoform): as the sequence (P42336 whole entry E542K, canonical isoform) above, with K542E, Q546K counted along it

% of inhibition [1]: -0.213%
Structure (SMILES): Cn1cc(-n2cnc3c(NCc4nc5cc(Cl)c(Cl)cc5[nH]4)nc(N4CCOCC4)nc32)cn1

% of activity ([2]; at 1 µM): 102% | % of activity ([2]; at 10 µM): 102%
Structure (SMILES): Cc1cc(C)cc([C@H]2c3cc(C)ccc3NC(=O)CN2C(=O)c2ccc(Br)s2)c1

Structure (SMILES): CNC(=O)Nc1ccc(-c2nc(N3CC4CCC(C3)O4)c3cnn(C4CCC5(CC4)OCCO5)c3n2)cc1
% of inhibition [3]: 7%

% of inhibition [4]: -19.5% | % of inhibition [5]: -4.9% | % of inhibition ([6]; at 0.01 µM): 11.7% | % of inhibition ([6]; at 0.04 µM): -9.5% | % of inhibition ([6]; at 0.2 µM): -6.6% | % of inhibition ([6]; at 1 µM): 4% | % of inhibition ([6]; at 5 µM): 0.1% | % of inhibition [7]: -26.4%
Structure (SMILES): CC[C@@H]1[C@H](F)C(=O)N[C@@H]1COc1nccc2cc(C(N)=O)c(OC)cc12 [ZIMLOVISERTIB]

% of control ([8]; at 1 µM): 98% | % of control ([8]; at 5 µM): 96% | % of control (Insulin receptor; at 1 µM): 91% | % of control (Insulin receptor; at 5 µM): 83%
Structure (SMILES): C=CC(=O)Nc1cccc(C(=O)Nc2ccc(Nc3cc(-c4[nH]c(SC)nc4C)ccn3)cc2)c1

Structure (SMILES): Cc1cc(F)c(C(=O)Nc2cccc(-c3nncn3C(C)C)n2)cc1-n1cnc(C2CC2)c1
% of control [9]: 88%

Structure (SMILES): CCC(=O)N1CCN(c2ccc(-n3c(=O)ccc4cnc5ccc(-c6cnc7ccccc7c6)cc5c43)cc2C(F)(F)F)CC1
% of control [10]: 6.8% | % of control [11]: 0.7% | % of control [12]: 1% | % of control [13]: 1% | % of control [14]: 0.6% | % of control [15]: 2.6% | % of control [16]: 8.6% | % of control [17]: 79%

Structure (SMILES): Cc1cc([C@@H](C)Nc2ccccc2C(=O)O)c2nc(N3CCOCC3)cc(=O)n2c1 [AZD-6482]
% of control [18]: 95%

Structure (SMILES): O[C@H]1CC[C@H](Nc2ncc3nc(Nc4c(F)cc(F)cc4F)n([C@H]4CCOC4)c3n2)CC1
% of control [19]: 56%
